According to patent US12410124B2 (priority 2019, dated 2025):

tested on: midbrain pp38; experiment: Midbrain pp38 protein expression in MPTP Parkinson's disease model mouse (western-blotting); format: in vivo; conditions: midbrain total protein, GAPDH internal reference, gavage 21 days after MPTP modeling
Description: Neurotoxins can be used to establish PD animal models. Currently, 1-methyl-4-phenyl-1,2,3,6-tetrahydropyridine (MPTP) is the sole synthetic toxin which is recognized to induce PD symptoms in human and non-human primates and in mice. Using MPTP subacute modeling method, C57BL/6J male mice were intraperitoneally injected with MPTP 30 mg/kg, once a day for 5 consecutive days. The experiment animals were divided into blank control group, MPTP model group, and compound treatment group. For the […] compound treatment group, the compound was administrated by gavage for 21 consecutive days after the completion of modeling; for the MPTP model group, the normal saline was administrated by gavage for 21 consecutive days after the completion of modeling; and for the blank control group, the normal saline was first intraperitoneally injected for 5 days, and then administrated by gavage for 21 days.
The p38 mitogen-activated protein kinase (p38 MAPK) is expressed in both neurons and glial cells, and is the intersection point of neuron-glial cell network information regulations. The activation of p38 signaling pathway is an important initiator of neuronal degeneration, which continuously induces the apoptosis of dopaminergic neurons in multiple ways. It has become a research hotspot for the treatment of PD. Studies have shown that the protective mechanism of CAPE against the death of primary cultured cerebellar granule neurons induced by glutamate lies in inhibiting the activation of p38 phosphorylation and in turn inhibiting the activation of the caspase 3 apoptotic pathway to prevent neuronal apoptosis. Therefore, the MPTP-induced PD mouse model can be used to investigate the inhibitory effect of the target compounds on the activation of p38 phosphorylation on the overall animal level.
Half of experiment mice in each group were taken to extract the total midbrain protein, and the change in the midbrain phosphorylated p38 protein expression was determined by western-blotting using GAPDH as the internal reference. The experiment included blank control group, MPTP model group, positive control group (caffeic acid phenethyl ester, CAPE), prototype control group (styryl sulfone compounds 3B, 3C, 3D, and 3G, whose structures are shown as above), and target compound group.

CCN(C)C(=O)Oc1ccc(/C=C/S(=O)(=O)CC(c2ccc(-c3ccc(OC)c(OC)c3)cc2)[N+](=O)[O-])cc1OC(=O)N(C)CC (centres unmarked) [Compound M1-1, (E)-4-{2-[2-(3′,4′-dimethoxy-[1,1′-biphenyl]-4-yl)-2-nitroethylsulfonyl]ethenyl}-1,2-phenylenebis(N-ethyl-N-methylcarbamate)] and COc1ccc(CC(=O)Oc2ccc(/C(C)=C/S(=O)(=O)/C=C/c3ccc(OC(=O)N(C)C)c(O[Si](C)(C)CCl)c3)cc2)cc1 [Compound P1-7, 4-{(E)-1-[(E)-3-(chloromethyldimethylsiloxy)-4-(N,N-dimethylcarbamoyloxy)styrylsulfonyl]prop-1-en-2-yl}phenyl-2-(4-methoxyphenyl) acetate] are the same in “Expression (pp38/GAPDH)” value: 0.40 ± 0.05 for the first, 0.40 ± 0.04 for the second.

COCCN(C)C(=O)Oc1cc(/C=C/S(=O)(=O)CCc2cccc(-c3ccc(C)o3)c2)ccc1OC(C)=O [Compound J1-4, (E)-2-[N-(2-methoxyethyl)-N-methylcarbamoyloxy]-4-{2-[3-(5-methylfur-2-yl)phenylethylsulfonyl]ethenyl}phenyl acetate] and CC(C)(C)c1ccc(CS(=O)(=O)/C=C/c2ccc(O)c(O)c2)cc1 [Compound 3G, (E)-4-{2-[(4-t-butylphenyl)mesyl]ethenyl}benzene-1,2-diol, reference compound] are within error of each other in “Expression (pp38/GAPDH)” value: 0.41 ± 0.08 for the first, 0.69 ± 0.22 for the second.

First: CN(C)c1ccc(CC(=O)Oc2cc(/C=C/S(=O)(=O)C(Br)c3ccc(Cc4ccc(N(C)C)cc4)cc3)ccc2OC(=O)N2CCCC2C(F)(F)F)cc1 (centres unmarked) [Compound M1-5]
Second: C=CCOc1ccc(C/C=C/S(=O)(=O)/C=C/c2ccc(OC(C)=O)c(OC(=O)N(CC=C)CC=C)c2)cc1 [Compound K1-4, 4-{(E)-2-[(E)-3-(4-allyloxyphenyl)prop-1-en-1-yl]sulfonylethenyl}-2-(N,N-diallylcarbamoyloxy)phenyl acetate]
The “Expression (pp38/GAPDH)” value of the first is lower: 0.29 ± 0.06 for the first, 0.44 ± 0.05 for the second.

COc1cc(/C=C/S(=O)(=O)Cc2cc(OC)c(OC)c(OC)c2)ccc1OC(=O)N(c1ccccc1)c1ccccc1 [Compound K3-3, (E)-2-methoxy-4-{2-[(3,4,5-trimethoxyphenyl)mesyl]ethenyl}-phenyl-N,N-diphenylcarbamate] and CC[Si](CC)(Oc1ccc(C(Cl)S(=O)(=O)/C=C/c2ccc(OC(=O)N3CC(C)OC(C)C3)c(OC(=O)c3cccc(Cl)c3OC)c2)cc1)c1ccccc1 (centres unmarked) [Compound R1-5, (E)-4-{2-[4-(diethylphenylsiloxy)phenylchloromesyl]ethenyl}-2-(3-chloro-2-methoxybenzoyloxy)phenyl-2,6-dimethylmorpholine-4-carboxylate] are within error of each other in “Expression (pp38/GAPDH)” value: 0.55 ± 0.08 for the first, 0.44 ± 0.07 for the second.

First: O=C(NC(=O)C(F)(F)F)Oc1ccc(/C=C/S(=O)(=O)C(F)(F)c2ccc(Oc3ccccn3)cc2)cc1OC(=O)C(F)(F)C(F)(F)F [Compound L1-4, (E)-5-{2-[(4-[pyridin-2-yl-oxy]phenyl)difluoromethylsulfonyl]ethenyl}-2-[N-(2,2,2-trifluoroacetyl)carbamoyloxy]phenyl-2,2,3,3,3-pentafluoropropionate]
Second: (E)-2-[(methylamino)methoxy]-4-{2-[1-(4′-nitro-[1,1′-biphenyl]-4-yl)ethylsulfonyl]ethenyl}phenylcarbamate [Compound M1-3]
The “Expression (pp38/GAPDH)” value of the first is lower: 0.28 ± 0.04 for the first, 0.42 ± 0.06 for the second.

Going from O=S(=O)(/C=C/c1ccc(O)c(O)c1)Cc1ccc(C(F)(F)F)cc1 [Compound 3B, (E)-4-{2-[(4-trifluoromethylphenyl)mesyl]ethenyl}benzene-1,2-diol, reference compound] to COc1ccc(CC(=O)Oc2ccc(C(N)CS(=O)(=O)/C=C/c3ccc(OC(C)(C)C)c(OC(=O)N(C)c4ccccc4)c3)cc2)cc1 (centres unmarked) [Compound P1-3, (E)-4-{1-amino-2-[4-t-butoxy-3-(N-methyl-N-phenylcarbamoyloxy)styrylsulfonyl]ethyl}phenyl-2-(4-methoxyphenyl)acetate], the “Expression (pp38/GAPDH)” value falls from 1.18 ± 0.08 to 0.33 ± 0.07.

CCN(CC)C(=O)Oc1ccc(/C=C/S(=O)(=O)Cc2ccc(C(F)(F)F)cc2)cc1OC(=O)N(CC)CC [Compound B1-1, (E)-4-{2-[(4-trifluoromethylphenyl)mesyl]ethenyl}-1,2-phenylenebis(diethylcarbamate)] and CCN(CC)C(=O)Oc1ccc(/C=C/S(=O)(=O)Cc2ccc(C(C)(C)C)cc2)cc1OC(=O)N(CC)CC [Compound G1-1, (E)-4-{2-[(4-t-butylphenyl)mesyl]ethenyl}-1,2-phenylenebis(diethylcarbamate)] are within error of each other in “Expression (pp38/GAPDH)” value: 0.37 ± 0.12 for the first, 0.33 ± 0.07 for the second.

Compared with CCN(CC)C(=O)Oc1ccc(/C=C/S(=O)(=O)CCCc2ccccc2)cc1OC(=O)N(CC)CC [Compound C1-1, (E)-4-[2-(3-phenylpropylsulfonyl)ethenyl]-1,2-phenylenebis(diethylcarbamate)], CC(Br)C(Br)COc1cc(/C=C/S(=O)(=O)CCc2ccc(OCC(F)(F)F)cc2)ccc1OC(=O)Nc1ccsc1 (centres unmarked) [Compound K1-3, (E)-2-(2,3-dibromobutoxy)-4-{2-[4-(2,2,2-trifluoroethoxy)phenylethylsulfonyl]ethenyl}phenyl-N-(thien-3-yl)carbamate] is lower in “Expression (pp38/GAPDH)” value: 0.63 ± 0.06 for the first, 0.35 ± 0.06 for the second.

Compared with CCN(CC)C(=O)Oc1ccc(/C=C/S(=O)(=O)Cc2ccc(Cl)cc2)cc1OC(=O)N(CC)CC [Compound D1-1, (E)-4-{2-[(4-chlorophenyl)mesyl]ethenyl}-1,2-phenylenebis(diethylcarbamate)], Cc1ccc(S(=O)(=O)Oc2ccc(CS(=O)(=O)/C=C/c3ccc(OS(=O)(=O)c4ccc(C)cc4)c(OC(=O)N(C)S(=O)(=O)c4ccc(C)cc4)c3)cc2)cc1 [Compound S6-6, (E)-2-(N-methyl-N-p-tosylcarbamoyloxy)-4-{2-[(4-p-tosyloxyphenyl)mesyl]ethenyl}phenyl p-toluenesulfonate] is lower in “Expression (pp38/GAPDH)” value: 0.50 ± 0.13 for the first, 0.27 ± 0.05 for the second.

O=C(/C=C/c1ccc(O)c(O)c1)OCCc1ccccc1 [Positive control group, caffeic acid phenethyl ester, reference compound] and CC(=O)Oc1ccc(/C=C/S(=O)(=O)Cc2c(F)c(F)c(F)c(F)c2F)cc1OC(=O)NC(=O)c1ccc([N+](=O)[O-])c(C)c1 [Compound D5-4, (E)-2-[N-(3-methyl-4-nitrobenzoyl)carbamoyloxy]-4-{2-[(perfluorophenyl)mesyl]ethenyl}phenyl acetate] are within error of each other in “Expression (pp38/GAPDH)” value: 0.58 ± 0.12 for the first, 0.61 ± 0.07 for the second.

Compared with CC(C)N(c1ccc(CCS(=O)(=O)/C=C/c2ccc(OC(=O)N(C)c3ccc(I)cc3)c(OCCOCc3ccccc3)c2)cc1)C(C)C [Compound A1-3, (E)-2-(2-benzyloxyethoxy)-4-{2-[4-(N,N-diisopropylamino)phenylethylsulfonyl]ethenyl}phenyl-N-(4-iodophenyl)-N-methylcarbamate], Cc1ccc(N2CCN(C(=O)Oc3ccc(/C=C/S(=O)(=O)CCCC(c4ccc(OC(=O)CN(C)C)cc4)N(C)C)cc3OC(=O)N(C)c3ccccc3)CC2)cc1 (centres unmarked) [Compound P1-1, (E)-4-{2-[4-(dimethylamino)-4-(4-(N,N-dimethylglycyloxy)phenyl)butylsulfonyl]ethenyl}-2-(N-methyl-N-phenylcarbamoyloxy)phenyl-4-(p-methylphenyl)piperazine-1-carboxylate] is higher in “Expression (pp38/GAPDH)” value: 0.27 ± 0.08 for the first, 0.50 ± 0.09 for the second.

Compared with CNC(=O)Oc1ccc(/C=C/S(=O)(=O)CC(Cl)c2ccc(Cl)c([N+](=O)[O-])c2)cc1O (centres unmarked) [Compound E2-2, (E)-4-{2-[2-chloro-2-(4-chloro-3-nitrophenyl)ethylsulfonyl]ethenyl}-2-hydroxyphenyl-N-methylcarbamate], O=S(=O)(/C=C/c1ccc(O)c(O)c1)CCCc1ccccc1 [Compound 3C, (E)-4-{2-[(3-phenylpropyl)sulfonyl]ethenyl}benzene-1,2-diol, reference compound] is higher in “Expression (pp38/GAPDH)” value: 0.43 ± 0.06 for the first, 0.85 ± 0.22 for the second.

Compared with O=S(=O)(/C=C/c1ccc(O)c(O)c1)Cc1ccc(Cl)cc1 [Compound 3D, (E)-4-{2-[(4-chlorophenyl)mesyl]ethenyl}benzene-1,2-diol, reference compound], CCOC(CS(=O)(=O)/C=C/c1ccc(OC(C)=O)c(OC(=O)Nc2ccc(NC)cc2)c1)C(OCC)c1ccc(OCc2ccccc2)c(O)c1 (centres unmarked) [Compound H2-4, (E)-4-{2-[3-(4-benzyloxy-3-hydroxyphenyl)-2,3-diethoxypropyl]sulfonylethenyl}-2-[N-(4-methylaminophenyl)carbamoyloxy]phenyl acetate] is lower in “Expression (pp38/GAPDH)” value: 1.00 ± 0.11 for the first, 0.43 ± 0.05 for the second.
